The source of these data is US20260263495A1, “METHODS AND BIOAVAILABLE HIGHLY PERMEABLE COMPOUNDS FOR DISEASES TREATMENT” (priority 2024, published 2026).

What is called Cmax is the peak of the concentration-time curve.

Series [1] can be described thus: API concentration in the blood plasma of cattle after oral administration. In kind it is in vivo. The note with it: 600 μg/kg (per pure IVM). As for the experimental part: Free ivermectin substance was processed in planetary mill, the parameters were as follows: weight of the material—5 g, grinding jar volume—200 mL, grinding media—steel balls (diameter 8 mm, 90.0 g load), processing time—20 minutes. Compound of Formula I was treated according to Example 1 No21.
Cattle were divided into 2 groups of 1 animals each. Free Ivermectin (IVM) and compound of Formula I were orally administered to starving cattle. Blood samples were withdrawn from the jugular vein at appropriate time intervals after administration (0, 4, 20 h).
Ivermectin concentrations in blood plasma were analyzed according to the method Na-Bangchang, K., High-performance liquid chromatographic method for the determination of ivermectin in plasma, Southeast Asian J Trop Med Public Health, 2006 September, 37(5):848-58, PMID: 17333725.
The internal standard (moxidectin) was separated from ivermectin on a Hypersil Gold C18 column(150×4.6 mm, […]), with retention time of 3.7 and 7.0 minutes, respectively. Fluorescence detection was set at an excitation and emission wavelength of 365 and 475 nm, respectively. The mobile phase consisted of acetonitrile, methanol and distilled water (50:45:5,v/v/v), running through the column at a flow rate of 1.5 ml/minute. The chromatographic analysis was operated at 25° C. Sample preparation (100 μl plasma) was done by a single step protein precipitation with acetonitrile, followed by derivatization with 100 μl of N-methylimidazolesolution in acetonitrile (1:1, v/v) and 150 μl of trifluoroacetic anhydrous solution in acetonitrile(1:2, v/v). Calibration curve over the concentration range of 20-8,000 ng/ml plasma was linear with correlation coefficient better than 0.995.
All the blood samples were centrifuged at 3000 rpm for 15 min to obtain […]. Cattle plasma samples (100 μL each) were placed in 1.5 mL Eppendorf tubes, and then the samples underwent protein precipitation. The samples were vortexed for 1 min and centrifuged at 13,400 rpm for 10 min 20 μL of the supernatant was injected into the HPLC.

Another series has as its system SARS-CoV-2. The conditions noted are these: reference level compared with the lung Cmax; read-out: EC 50 for SARS-CoV-2; cited from earlier work.
Series [2] deals with monolayer of Caco-2 cells. The series is described as follows: Permeability of solid dispersion aqueous solution on the Caco-2 cell line. The conditions noted are these: Caco-2 monolayer, 3 μM (per pure IVM) in HBSS on top, compound of Formula I = Example 1 No 2. (Caco-2 monolayers are a common model of the intestinal barrier.)

`CC[C@H](C)[C@H]1O[C@]2(CC[C@@H]1C)C[C@@H]1C[C@@H](C/C=C(\C)[C@@H](O[C@H]3C[C@H](OC)[C@@H](O[C@H]4C[C@H](OC)[C@@H](O)[C@H](C)O4)[C@H](C)O3)[C@@H](C)/C=C/C=C3\CO[C@@H]4[C@H](O)C(C)=C[C@@H](C(=O)O1)[C@]34O)O2` [IVM, Ivermectin] displayed a Cmax in series [1] of 350 ± 50 nM. Also, the “C1, 0 h, ivermectin concentration in plasma” value in series [1] (0 h, compound of Formula I treated according to Example 1 No21) came out at 0 ± 0.15 ng/mL. Besides, the “C2, 4 h, ivermectin concentration in plasma” value in series [1] (4 h, compound of Formula I treated according to Example 1 No21) was 307.3 ± 46.1 ng/mL. The “C3, 20 h, ivermectin concentration in plasma” value in series [1] (20 h, compound of Formula I treated according to Example 1 No21) stood at 104.4 ± 15.6 ng/mL. Moreover, the “Cmax in lung calculated by plasma-lung ratio 2.67” value in series [1] (calculated from plasma Cmax) was 930 ± 140 nM. Also, the EC50 in the series on SARS-CoV-2 is 2400 nM. In addition, the “Concentrartion of IVM at the bottom of the well” value worked out at 50 ng/mL in series [2] (20 min); 90 ng/mL in series [2] (40 min); 150 ng/mL in series [2] (60 min); 190 ng/mL in series [2] (80 min); 210 ng/mL in series [2] (100 min); 250 ng/mL in series [2] (120 min).
